Organism: Rattus norvegicus
Assay: Open TG-GATES - Regimen: Single
Assay type: toxicity, organism-based, Sprague-Dawley
Parameters: regimen Single, gender Male, age 6 weeks
Conditions: in vivo, po, 30 mg/kg, route gavage, dose level Low; for APTT / Bas / Eos / Fbg / Hb / Ht / Lym / MCH / MCHC / MCV / Mono / Neu / PT / Plat / RBC / Ret / WBC: tissue Blood; for KIDNEY_L / KIDNEY_R / KIDNEY_TOTAL: tissue Kidney; for LIVER: tissue Liver; for A/G / ALP / ALT / AST / BUN / CRE / Ca / Cl / DBIL / GLC / IP / K / LDH / Na / PL / RALB / TBIL / TC / TG / TP / gamma-GTP: tissue Plasma

SMILES: ClC(Cl)(Cl)Cl [CARBON TETRACHLORIDE]
- TERMINAL_BW (3 h): 206.6 g
- APTT (3 h): 16.5 s
- Bas (3 h): 0%
- Eos (3 h): 0.8%
- Fbg (3 h): 259.6 mg/dL
- Hb (3 h): 13 g/dL
- Ht (3 h): 37.5%
- Lym (3 h): 76.6%
- MCH (3 h): 21.2 pg
- MCHC (3 h): 34.6%
- MCV (3 h): 61.4 fL
- Mono (3 h): 3.4%
- Neu (3 h): 19%
- PT (3 h): 12.3 s
- Plat (3 h): 127.9 x10_4/uL
- RBC (3 h): 610.8 x10_4/ul
- Ret (3 h): 8.6%
- WBC (3 h): 95.4 x10_2/uL
- KIDNEY_L (3 h): 0.9 g
- KIDNEY_R (3 h): 0.9 g
- KIDNEY_TOTAL (3 h): 1.9 g
- LIVER (3 h): 9.7 g
- A/G (3 h): 1.6
- ALP (3 h): 1090.2 IU/L
- ALT (3 h): 39.6 IU/L
- AST (3 h): 67.4 IU/L
- BUN (3 h): 11.8 mg/dL
- CRE (3 h): 0.4 mg/dL
- Ca (3 h): 10.9 mg/dL
- Cl (3 h): 104 meq/L
- DBIL (3 h): 0.1 mg/dL
- GLC (3 h): 192.6 mg/dL
- IP (3 h): 9.8 mg/dL
- K (3 h): 3.8 meq/L
- LDH (3 h): 198.8 IU/L
- Na (3 h): 140.2 meq/L
- PL (3 h): 169.2 mg/dL
- RALB (3 h): 3.4 g/dL
- TBIL (3 h): 0.2 mg/dL
- TC (3 h): 86 mg/dL
- TG (3 h): 81.2 mg/dL
- TP (3 h): 5.6 g/dL
- gamma-GTP (3 h): 1.4 IU/L
- TERMINAL_BW (6 h): 205.6 g
- APTT (6 h): 17.9 s
- Bas (6 h): 0%
- Eos (6 h): 1%
- Fbg (6 h): 242 mg/dL
- Hb (6 h): 13.1 g/dL
- Ht (6 h): 37.4%
- Lym (6 h): 72.8%
- MCH (6 h): 22 pg
- MCHC (6 h): 34.9%
- MCV (6 h): 63.1 fL
- Mono (6 h): 2.6%
- Neu (6 h): 22.8%
- PT (6 h): 12.7 s
- Plat (6 h): 134.6 x10_4/uL
- RBC (6 h): 593.6 x10_4/ul
- Ret (6 h): 8.6%
- WBC (6 h): 78.1 x10_2/uL
- KIDNEY_L (6 h): 0.9 g
- KIDNEY_R (6 h): 0.9 g
- KIDNEY_TOTAL (6 h): 1.8 g
- LIVER (6 h): 9.4 g
- A/G (6 h): 1.7
- ALP (6 h): 1051 IU/L
- ALT (6 h): 29.4 IU/L
- AST (6 h): 63.8 IU/L
- BUN (6 h): 10.2 mg/dL
- CRE (6 h): 0.4 mg/dL
- Ca (6 h): 10.6 mg/dL
- Cl (6 h): 104.4 meq/L
- DBIL (6 h): 0.1 mg/dL
- GLC (6 h): 195 mg/dL
- IP (6 h): 9.4 mg/dL
- K (6 h): 4.1 meq/L
- LDH (6 h): 221.2 IU/L
- Na (6 h): 139.6 meq/L
- PL (6 h): 159 mg/dL
- RALB (6 h): 3.5 g/dL
- TBIL (6 h): 0.2 mg/dL
- TC (6 h): 79 mg/dL
- TG (6 h): 91.2 mg/dL
- TP (6 h): 5.6 g/dL
- gamma-GTP (6 h): 1 IU/L
- TERMINAL_BW (9 h): 201.5 g
- APTT (9 h): 17.2 s
- Bas (9 h): 0%
- Eos (9 h): 0.8%
- Fbg (9 h): 229.4 mg/dL
- Hb (9 h): 12.7 g/dL
- Ht (9 h): 36.5%
- Lym (9 h): 74%
- MCH (9 h): 21.4 pg
- MCHC (9 h): 34.8%
- MCV (9 h): 61.6 fL
- Mono (9 h): 2.2%
- Neu (9 h): 22.6%
- PT (9 h): 12.5 s
- Plat (9 h): 126.6 x10_4/uL
- RBC (9 h): 593.2 x10_4/ul
- Ret (9 h): 9.1%
- WBC (9 h): 76.5 x10_2/uL
- KIDNEY_L (9 h): 0.9 g
- KIDNEY_R (9 h): 0.9 g
- KIDNEY_TOTAL (9 h): 1.8 g
- LIVER (9 h): 8.6 g
- A/G (9 h): 1.6
- ALP (9 h): 1042.2 IU/L
- ALT (9 h): 29.8 IU/L
- AST (9 h): 58 IU/L
- BUN (9 h): 10 mg/dL
- CRE (9 h): 0.4 mg/dL
- Ca (9 h): 10.4 mg/dL
- Cl (9 h): 103.8 meq/L
- DBIL (9 h): 0.09 mg/dL
- GLC (9 h): 196.8 mg/dL
- IP (9 h): 10.6 mg/dL
- K (9 h): 3.6 meq/L
- LDH (9 h): 174 IU/L
- Na (9 h): 140.2 meq/L
- PL (9 h): 150.8 mg/dL
- RALB (9 h): 3.3 g/dL
- TBIL (9 h): 0.2 mg/dL
- TC (9 h): 75.8 mg/dL
- TG (9 h): 57.2 mg/dL
- TP (9 h): 5.4 g/dL
- gamma-GTP (9 h): 0.8 IU/L
- TERMINAL_BW (24 h): 211.3 g
- APTT (24 h): 19.1 s
- Bas (24 h): 0%
- Eos (24 h): 0.8%
- Fbg (24 h): 229.6 mg/dL
- Hb (24 h): 13.6 g/dL
- Ht (24 h): 38.8%
- Lym (24 h): 84.4%
- MCH (24 h): 22.4 pg
- MCHC (24 h): 35%
- MCV (24 h): 64 fL
- Mono (24 h): 2.6%
- Neu (24 h): 11.6%
- PT (24 h): 12.1 s
- Plat (24 h): 132.2 x10_4/uL
- RBC (24 h): 606.4 x10_4/ul
- Ret (24 h): 8%
- WBC (24 h): 101.3 x10_2/uL
- KIDNEY_L (24 h): 1 g
- KIDNEY_R (24 h): 1 g
- KIDNEY_TOTAL (24 h): 2 g
- LIVER (24 h): 10.4 g
- A/G (24 h): 1.6
- ALP (24 h): 1115.2 IU/L
- ALT (24 h): 42.4 IU/L
- AST (24 h): 69.6 IU/L
- BUN (24 h): 14.8 mg/dL
- CRE (24 h): 0.4 mg/dL
- Ca (24 h): 10.7 mg/dL
- Cl (24 h): 103.8 meq/L
- DBIL (24 h): 0.07 mg/dL
- GLC (24 h): 202 mg/dL
- IP (24 h): 7.7 mg/dL
- K (24 h): 3.8 meq/L
- LDH (24 h): 188.8 IU/L
- Na (24 h): 140.6 meq/L
- PL (24 h): 155.2 mg/dL
- RALB (24 h): 3.5 g/dL
- TBIL (24 h): 0.1 mg/dL
- TC (24 h): 81.2 mg/dL
- TG (24 h): 61.8 mg/dL
- TP (24 h): 5.7 g/dL
- gamma-GTP (24 h): 1.4 IU/L

Source: ChEMBL document CHEMBL3885861, “Open TG-GATES”
